Molecular target: human DHODH (Homo sapiens, UniProt Q02127)
Experiment: Inhibition of human DHODH activity assay (DCIP chromogen reduction)
Assay type: biochemical
Settings: enzyme extracts, 10 min at room temperature, absorbance at 600 nm, duplicate; read-out: hDHODH IC50
Protocol: DHODH activity and its inhibition were studied using a chromogen reduction assay with DCIP (2,6-dichlorophenol-indophenol).
Enzyme extracts (8 μl, ˜1.5 μg of human protein) were incubated in 96-well plates. The assay mixture (200 μl) contained 200 μM CoQD, 100 μM L-DHO, 120 μM DCIP in the assay buffer (100 mM HEPES pH 8.0, 150 mM NaCl, 10% Glicerol, 0.05% Triton X-100) and 2 μl of test compound. The compounds were dissolved in DMSO at a stock concentration of 1 mM, and tested at different concentrations varying from 10 μM to 1 pM to calculate an IC50 (concentration of inhibitor required for 50% of inhibition).
The reaction was initiated by adding the enzyme and then incubated for 10 min at room temperature before measuring DCIP reduction by counting a decrease in absorbance at 600 nm using standard instrumentation (Spectramax).
All reactions were carried out in duplicate and graphs, determining IC50 values for each compound, were plotted using the ABase software.

human DHODH, sequence (Q02127 whole entry): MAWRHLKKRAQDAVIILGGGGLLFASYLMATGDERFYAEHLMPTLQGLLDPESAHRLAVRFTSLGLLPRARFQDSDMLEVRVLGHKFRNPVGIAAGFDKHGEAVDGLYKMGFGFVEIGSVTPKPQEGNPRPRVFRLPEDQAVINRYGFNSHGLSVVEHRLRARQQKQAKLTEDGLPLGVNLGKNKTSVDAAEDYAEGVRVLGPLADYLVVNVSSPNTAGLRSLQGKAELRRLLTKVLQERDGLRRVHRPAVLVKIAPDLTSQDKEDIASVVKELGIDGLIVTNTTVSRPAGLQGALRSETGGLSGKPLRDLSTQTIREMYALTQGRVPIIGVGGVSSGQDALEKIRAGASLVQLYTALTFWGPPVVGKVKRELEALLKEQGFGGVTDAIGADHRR

SMILES | IC50 [nM]
COc1cccc(-c2ncc(Nc3ccc(C4CC4)cc3C(=O)O)cc2C(F)(F)F)c1 [Compound 107, 5-Cyclopropyl-2-(6-(3-methoxyphenyl)-5-(trifluoromethyl)pyridin-3-ylamino)benzoic acid] | 7
Cc1ccc(Nc2cnc(-c3cccc(OC(C)C)c3)c(C)c2)c(C(=O)O)c1 [Compound 67, 2-(6-(3-Isopropoxyphenyl)-5-methylpyridin-3-ylamino)-5-methylbenzoic acid] | 11
COc1ccc(F)c(-c2cc(C)c(Nc3ccc(C)cc3C(=O)O)cn2)c1 [Compound 75, 2-(6-(2-Fluoro-5-methoxyphenyl)-4-methylpyridin-3-ylamino)-5-methylbenzoic acid] | 97
Cc1ccc(Nc2cnc(-c3cccc(C(=O)NC4CC4)c3)c(C)c2)c(C(=O)O)c1 [Compound 126, 2-(6-(3-(Cyclopropylcarbamoyl)phenyl)-5-methylpyridin-3-ylamino)-5-methylbenzoic acid] | 12
O=C(O)c1cc(C2CC2)ccc1Nc1cncc(-c2ccccc2)c1 [Compound 15, 5-cyclopropyl-2-(5-phenylpyridin-3-ylamino)benzoic acid] | 113
COc1ccc(F)cc1-c1ncc(Nc2ccc(C)cc2C(=O)O)cc1C [Compound 148, 2-(6-(5-fluoro-2-methoxyphenyl)-5-methylpyridin-3-ylamino)-5-methylbenzoic acid] | 46
Cc1ccc(Nc2cnc(-c3ccccc3C(F)(F)F)c(C)c2)c(C(=O)O)c1 [Compound 93, 5-Methyl-2-(5-methyl-6-(2-(trifluoromethyl)phenyl)pyridin-3-ylamino)benzoic acid] | 20
COc1ncc(Nc2ccc(C3CC3)cc2C(=O)O)cc1-c1ccccc1 [Compound 7, 5-Cyclopropyl-2-(6-methoxy-5-phenylpyridin-3-ylamino)benzoic acid] | 49
O=C(O)c1cc(C2CC2)ccc1Nc1cnc(-c2c(F)cc(O)cc2F)nc1 [Compound 6, 5-cyclopropyl-2-(2-(2,6-difluoro-4-hydroxyphenyl)pyrimidin-5-ylamino)benzoic acid] | 57
CCOc1cccc(-c2cc(C)c(Nc3ccc(C)cc3C(=O)O)cn2)c1 [Compound 44, 2-(6-(3-Ethoxyphenyl)-4-methylpyridin-3-ylamino)-5-methylbenzoic acid] | 78
Cc1ccc(Nc2cc(Cl)cnc2-c2ccccc2)c(C(=O)O)c1 [Compound 18, 2-(5-Chloro-2-phenylpyridin-3-ylamino)-5-methylbenzoic acid] | 62

Other lines, results leading:

IC50 [nM] | SMILES
98 | Cc1ccc(Nc2ccc(-c3cccc(C(F)(F)F)c3)nc2)c(C(=O)O)c1 [Compound 4, 5-Methyl-2-(6-(3-(trifluoromethyl)phenyl)pyridin-3-ylamino)benzoic acid]
9 | O=C(O)c1cc(C2CC2)ccc1Nc1cnc(-c2ccccc2C(F)(F)F)nc1 [Compound 128, 2-(2-(2-trifluoromethylphenyl)pyrimidin-5-ylamino)-5-cyclopropylbenzoic acid]
114 | O=C(O)c1cc(C2CC2)ccc1Nc1cnc(-c2cccc(OC3CC3)c2)nc1 [Compound 22, 2-(2-(3-Cyclopropoxyphenyl)pyrimidin-5-ylamino)-5-cyclopropylbenzoic acid]
190 | Cc1ccc(Nc2cnc(-c3cccc(C(N)=O)c3)c(C)c2)c(C(=O)O)c1 [Compound 73, 2-(6-(3-Carbamoylphenyl)-5-methylpyridin-3-ylamino)-5-methylbenzoic acid]
6 | Cc1cc(Nc2ccc(C3CC3)cc2C(=O)O)cnc1-c1ccccc1 [Compound 91, 5-Cyclopropyl-2-(5-methyl-6-phenylpyridin-3-ylamino)benzoic acid]
138 | COc1cccc(-c2ncc(Nc3ccc(C(F)(F)F)cc3C(=O)O)cc2C)c1 [Compound 50, 2-(6-(3-Methoxyphenyl)-5-methylpyridin-3-ylamino)-5-(trifluoromethyl)benzoic acid]
105 | O=C(O)c1cc(C2CC2)ccc1Nc1cnc(-c2ccccc2)nc1 [Compound 1, 5-cyclopropyl-2-(2-phenylpyrimidin-5-ylamino)benzoic acid]
